# Data from patent publication US20260184715A1, “NOVEL PYRROLO[1,2-d][1,2,4] TRIAZINONE DERIVATIVES AS NEGATIVE ALLOSTERIC MODULATORS OF MGLU7 RECEPTORS” (Neurosterix Pharma Sarl., priority 2022, published 2026).
# Biological target: T1, human metabotropic glutamate 7 receptor (hmGlu7) (Homo sapiens, UniProt Q14831)
# T1 construct: expressed in transfected cells
# Test: mGlu7 assay on HEK-expressing human mGlu7: fluorescent cell based-Ca2+ mobilization assay (FLIPR), inhibition of EC80 L-AP4 response
# Conditions: HEK-293 cells expressing hmGlu7, EC80 L-AP4; mean of at least three independent experiments in duplicate; read-out: Ca^2+ Flux (mean IC50)
# Excerpt: mGlu7 Assay on HEK-Expressing Human mGLU7
# The cDNA encoding the human metabotropic glutamate 7 receptor (hmGlu7), (accession number NM_181874.2, NCBI Nucleotide database browser), was subcloned into an expression vector containing also the hygromycin resistance gene. In parallel, the cDNA encoding a G protein allowing redirection of the activation signal to intracellular calcium flux was subcloned into a different expression vector containing also the Puromycin resistance gene. Transfection of both these vectors into HEK293 cells with PolyFect reagent (Qiagen) according to supplier's protocol, and hygromycin and puromycin treatment allowed selection of antibiotic resistant cells which had integrated stably one or more copies of the plasmids. Positive cellular clones expressing hmGlu7 were identified in a functional assay measuring changes in calcium fluxes in response to glutamate and L-AP4 or known mGlu7 orthosteric antagonists.
# HEK-293 cells expressing hmGlu7 were maintained in media containing DMEM, Fetal Bovine Serum (10%), GlutaMAX™ (2 mM), penicillin (100 units/mL), streptomycin (100 μg/mL), geneticin (100 μg/mL) and hygromycin-B (40 μg/mL) and puromycin (1 μg/mL) at 37° C. with 5% CO2 in a humidified atmosphere.
# Human mGlu7 HEK-293 cells were plated out 24 hours prior to a fluorescent cell-based calcium mobilization assay using FLIPR^384 assay (Molecular Device, Sunnyvale, CA, USA) in black-walled, clear-bottomed, poly-L-ornithine-coated 384-well plates at a density of 25,000 cells/well in a glutamine/glutamate free DMEM medium containing fetal bovine serum (10%), penicillin (100 units/mL), streptomycin (100 μg/mL) and doxycyline (1 μg/ml) at 37° C. with 5% CO2 in a humidified atmosphere.
# On the day of the assay, the medium was aspirated and the cells were loaded with a 3 μM solution of Fluo4-AM (LuBioScience, Lucerne, Switzerland) in 0.03% pluronic acid. After 1 hour at 37° C./5% CO2, the non incorporated dye was removed by washing cell plate with the assay buffer. All assays were performed in a pH 7.4 buffered-Solution containing 20 mM HEPES, 143 mM NaCl, 6 mM KCl, 1 mM MgSO4, 1 mM CaCl2, 0.125 mM sulfinpyrazone and 0.1% glucose.
# After 10 s of basal fluorescence recording, various concentrations of the compounds of the invention were added to the cells. Changes in fluorescence levels were first monitored for 180 s in order to detect any agonist activity of the compounds. Then the cells were stimulated by an EC80 L-AP4 concentration for an additional 110 s in order to measure inhibiting activities of the compounds of the invention. EC80 L-AP4 concentration is the concentration giving 80% of the maximal glutamate response.
# The concentration-response curves of L-AP4 or representative compounds of the present invention were generated using the Prism GraphPad software (Graph Pad Inc, San Diego, USA). The curves were fitted to a four-parameter logistic equation:
# (Y=Bottom+(Top−Bottom)/(1+10^((Log IC50−X)*Hill Slope)
# allowing determination of IC50 values.
# The Table 3 below represents the mean IC50 obtained from at least three independent experiments of selected molecules performed in duplicate.
# T1 sequence (Q14831 35-922 isoform Q14831-2 limits assumed): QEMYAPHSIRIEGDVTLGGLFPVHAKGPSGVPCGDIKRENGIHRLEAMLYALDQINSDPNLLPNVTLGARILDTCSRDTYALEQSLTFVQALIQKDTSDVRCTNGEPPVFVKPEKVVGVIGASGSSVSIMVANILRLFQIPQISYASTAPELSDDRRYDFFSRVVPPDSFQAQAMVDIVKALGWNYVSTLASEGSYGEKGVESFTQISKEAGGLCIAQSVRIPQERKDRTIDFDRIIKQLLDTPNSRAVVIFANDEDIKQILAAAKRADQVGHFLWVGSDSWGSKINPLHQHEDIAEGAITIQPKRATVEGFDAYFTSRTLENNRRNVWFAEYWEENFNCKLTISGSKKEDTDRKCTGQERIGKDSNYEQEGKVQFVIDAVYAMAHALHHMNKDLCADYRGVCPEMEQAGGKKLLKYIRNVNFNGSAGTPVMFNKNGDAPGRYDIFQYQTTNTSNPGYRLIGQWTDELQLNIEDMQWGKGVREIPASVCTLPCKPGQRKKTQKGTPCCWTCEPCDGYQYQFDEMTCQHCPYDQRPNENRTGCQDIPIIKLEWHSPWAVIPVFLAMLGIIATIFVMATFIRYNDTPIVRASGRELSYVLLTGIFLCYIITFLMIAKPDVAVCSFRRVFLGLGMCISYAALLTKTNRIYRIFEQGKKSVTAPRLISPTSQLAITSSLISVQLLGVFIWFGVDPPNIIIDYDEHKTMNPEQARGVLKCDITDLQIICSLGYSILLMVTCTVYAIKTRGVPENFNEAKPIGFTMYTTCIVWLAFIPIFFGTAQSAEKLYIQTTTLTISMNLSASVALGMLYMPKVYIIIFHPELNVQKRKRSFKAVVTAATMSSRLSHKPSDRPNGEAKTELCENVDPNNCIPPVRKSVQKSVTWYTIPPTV
row,SMILES,IC50
1,COc1ccc(-c2c(C)c3cnn(-c4ccccn4)c(=O)n3c2C)cc1 [1-130],100 to 1000 nM
2,COc1cccc(-c2c(C)c3cnn(-c4ccccn4)c(=O)n3c2C)c1 [1-2],< 100 nM
3,"Cc1c(-c2cccc(OC3CC3)c2)c(C)n2c(=O)n(-c3ncc(N4CCOCC4)cn3)ncc12 [1-47, 7-[3-(cyclopropoxy)phenyl]-6,8-dimethyl-3-(5-morpholinopyrimidin-2-yl)pyrrolo[1,2-d][1,2,4]triazin-4-one]",100 to 1000 nM
4,COc1ccc(-c2c(C)c3cnn(-c4ncccn4)c(=O)n3c2C)cn1 [1-132],< 100 nM
5,Cc1c(-c2cccc(OC(F)F)c2)c(C)n2c(=O)n(-c3ncc(F)cn3)ncc12 [1-17],< 100 nM
6,Cc1c(-c2cccc(OC3CC3)c2F)cc2cnn(-c3ccccn3)c(=O)n12 [1-109],< 100 nM
7,Cc1c(-c2cccc(OC3CC3)c2)c(C)n2c(=O)n(-c3ncc(F)cn3)ncc12 [1-21],< 100 nM
8,Cc1c(-c2cccc(N3CCC3)c2)c(C)n2c(=O)n(-c3ncccc3F)ncc12 [1-7],< 100 nM
9,Cc1c(-c2ccnc(OC(F)F)c2)c(C)n2c(=O)n(-c3ccccn3)ncc12 [1-140],100 to 1000 nM
10,Cc1c(OC2CC2)cccc1-c1c(C)c2cnn(-c3ccccn3)c(=O)n2c1C [1-8],100 to 1000 nM
11,Cc1c(OC2CC2)cccc1-c1c(C)c2cnn(-c3ccc(F)cn3)c(=O)n2c1C [1-54],100 to 1000 nM
12,Cc1c(-c2cccc(OC3CC3)c2)cc2cnn(-c3ccccn3)c(=O)n12 [1-83],1000 to 10000 nM
13,Cc1ccc(-c2c(C)c3cnn(-c4ccccn4)c(=O)n3c2C)c(C)c1 [1-1],< 100 nM
14,Cc1c(OC(F)F)cccc1-c1cc2cnn(-c3ncccn3)c(=O)n2c1C [1-75],< 100 nM
15,Cc1c(OC2CC2)cccc1-c1cc2cnn(-c3ncccn3)c(=O)n2c1C [1-85],100 to 1000 nM
16,Cc1c(-c2cccc(OC(F)F)c2)c(C)n2c(=O)n(-c3ncccn3)ncc12 [1-58],< 100 nM
17,Cc1c(-c2cccc(N3CCC3)c2)c(C)n2c(=O)n(-c3ccncc3)ncc12 [1-6],100 to 1000 nM
18,COc1cccc(-c2cc3cnn(-c4ccccn4)c(=O)n3c2C)c1F [1-108],100 to 1000 nM
19,COc1nccc(-c2cc3cnn(-c4ccccn4)c(=O)n3c2C)c1F [1-116],100 to 1000 nM
20,Cc1c(OC2CC2)cccc1-c1c(C)c2cnn(-c3ncc(F)cn3)c(=O)n2c1C [1-49],100 to 1000 nM
21,COc1cc(-c2cc3cnn(-c4ccccn4)c(=O)n3c2C)ccn1 [1-106],< 100 nM
22,Cc1c(-c2cccc(OC(F)(F)F)c2)c(C)n2c(=O)n(-c3ccccn3)ncc12 [1-38],100 to 1000 nM
23,COCCNc1ccc(-n2ncc3c(C)c(-c4cccc(N5CCC5)c4)c(C)n3c2=O)nc1 [1-35],100 to 1000 nM
24,Cc1c(-c2cccc3c2OCCN3C)cc2cnn(-c3ncccn3)c(=O)n12 [1-63],< 100 nM

row,SMILES,IC50
1,Cc1c(-c2cc3cnn(-c4ccccn4)c(=O)n3c2C)ccnc1OC1CC1 [1-143],< 100 nM
2,Cc1c(-c2cccc(N3CCC3)c2)c(C)n2c(=O)n(-c3ccc(NCCN(C)C)cn3)ncc12 [1-36],100 to 1000 nM
3,Cc1c(C2=CCCCC2)c(C)n2c(=O)n(-c3ccccn3)ncc12 [1-14],1000 to 10000 nM
4,COc1cccc(-c2cc3cnn(-c4ncccn4)c(=O)n3c2C)c1F [1-112],100 to 1000 nM
5,Cc1c(-c2cccc(OC3CC3)c2Cl)cc2cnn(-c3ccccn3)c(=O)n12 [1-104],< 100 nM
6,Cc1c(-c2cccc(N3CCC3)c2)c(C)n2c(=O)n(C)ncc12 [1-12],100 to 1000 nM
7,Cc1c(-c2cccc(N3CCC3)c2)c(C)n2c(=O)n(-c3ccc(N(C(=O)OC(C)(C)C)C(=O)OC(C)(C)C)cn3)ncc12 [1-28],1000 to 10000 nM
8,Cc1c(-c2cccc3c2CCN3C)cc2cnn(-c3ncccn3)c(=O)n12 [1-90],< 100 nM
9,Cc1c(-c2cccc(N3CCC3)c2)c(C)n2c(=O)n(-c3ccc(Br)cn3)ncc12 [1-26],1000 to 10000 nM
10,COc1cc(-c2cc3cnn(-c4ccccn4)c(=O)n3c2C)ccc1F [1-107],< 100 nM
11,COc1cccc(-c2cc3cnn(-c4ncccn4)c(=O)n3c2C)c1 [1-61],100 to 1000 nM
12,COc1ccc(F)c(-c2c(C)c3cnn(-c4ncccn4)c(=O)n3c2C)c1 [1-127],< 100 nM
13,Cc1c(-c2cccc3c2CC(=O)N3C)cc2cnn(-c3ccccn3)c(=O)n12 [1-78],< 100 nM
14,Cc1c(-c2cccc(N3CCC3)c2)c(C)n2c(=O)n(-c3ncc(N)cn3)ncc12 [1-44],< 100 nM
15,Cc1c(-c2ccnc(OC(F)F)c2)cc2cnn(-c3ncccn3)c(=O)n12 [1-147],< 100 nM
16,Cc1c(-c2c(C)c3cnn(-c4ccccn4)c(=O)n3c2C)cccc1N1CCC1 [1-13],< 100 nM
17,COc1cccc(-c2cc3cnn(-c4ccccn4)c(=O)n3c2C)c1Cl [1-73],< 100 nM
18,Cc1c(-c2cccc(OC(F)(F)F)c2)c(C)n2c(=O)n(-c3ncc(F)cn3)ncc12 [1-60],100 to 1000 nM
19,CCOC(=O)c1cnc(-n2ncc3c(C)c(-c4cccc(OC5CC5)c4)c(C)n3c2=O)nc1 [1-19],1000 to 10000 nM
20,Cc1c(-c2cccc3c2CCCN3C2CC2)c(C)n2c(=O)n(-c3ncccn3)ncc12 [1-121],100 to 1000 nM
21,Cc1c(OC2CC2)cccc1-c1cc2cnn(-c3ccccn3)c(=O)n2c1 [1-82],100 to 1000 nM
22,COc1cc(F)cc(-c2cc3cnn(-c4ncccn4)c(=O)n3c2C)c1 [1-103],< 100 nM
23,Cc1c(-c2cccc3c2OCCN3C)cc2cnn(-c3ccccn3)c(=O)n12 [1-62],< 100 nM
24,Cc1cnc(-n2ncc3c(C)c(-c4cccc(OC5CC5)c4C)c(C)n3c2=O)nc1 [1-52],100 to 1000 nM

row,SMILES,IC50
1,COc1cccc(-c2c(C)c3cnn(-c4ncccn4)c(=O)n3c2C)c1F [1-133],100 to 1000 nM
2,COc1ccc(F)c(-c2cc3cnn(-c4ccccn4)c(=O)n3c2C)c1 [1-102],< 100 nM
3,COc1cc(-c2cc3cnn(-c4ncccn4)c(=O)n3c2C)ccn1 [1-114],< 100 nM
4,CCn1ncc2c(C)c(-c3cccc4c3CCN4C)c(C)n2c1=O [1-100],100 to 1000 nM
5,Cc1c(-c2cccc(N3C4CCC3CC4)c2)c(C)n2c(=O)n(-c3ncccn3)ncc12 [1-131],100 to 1000 nM
6,Cc1c(-c2cccc3c2CCN3C2CC2)cc2cnn(-c3ccccn3)c(=O)n12 [1-65],< 100 nM
7,COc1ccc(-c2c(C)c3cnn(-c4ncccn4)c(=O)n3c2C)c(C)n1 [1-137],100 to 1000 nM
8,Cc1c(-c2cccc(OC(F)F)c2)c(C)n2c(=O)n(-c3ccccn3)ncc12 [1-37],< 100 nM
9,COc1nccc(-c2cc3cnn(-c4ncccn4)c(=O)n3c2C)c1F [1-117],< 100 nM
10,COc1ccc(-c2c(C)c3cnn(-c4ncccn4)c(=O)n3c2C)c(F)c1 [1-135],< 100 nM
11,COc1ccc(F)c(-c2c(C)c3cnn(-c4ccccn4)c(=O)n3c2C)c1 [1-126],100 to 1000 nM
12,Cc1c(-c2cccc(OC3CC3)c2Cl)cc2cnn(-c3ncccn3)c(=O)n12 [1-110],< 100 nM
13,Cc1c(-c2cccc(N3CCC3)c2)c(C)n2c(=O)n(-c3ccc(N4CCOCC4)nc3)ncc12 [1-32],100 to 1000 nM
14,Cc1c(-c2cccc(OC3CCC3)c2)c(C)n2c(=O)n(-c3ncccn3)ncc12 [1-124],100 to 1000 nM
15,COc1ccc(-c2cc3cnn(-c4ncccn4)c(=O)n3c2C)cn1 [1-144],100 to 1000 nM
16,COc1ccc(F)c(-c2cc3cnn(-c4ncccn4)c(=O)n3c2C)c1 [1-105],100 to 1000 nM
17,Cc1c(OC(F)F)cccc1-c1cc2cnn(-c3ccccn3)c(=O)n2c1C [1-71],< 100 nM
18,COc1cccc(-c2c(C)c3cnn(-c4ccccn4)c(=O)n3c2C)c1C [1-4],100 to 1000 nM
19,COc1cccc(-c2c(C)c3cnn(-c4ncccn4)c(=O)n3c2C)n1 [1-98],100 to 1000 nM
20,Cc1c(-c2cccc(OC(F)F)c2)cc2cnn(-c3ccccn3)c(=O)n12 [1-70],100 to 1000 nM
21,Cc1c(-c2cccc(N3CCC3)c2)c(C)n2c(=O)n(-c3ncc(OCCN(C)C)cn3)ncc12 [1-43],100 to 1000 nM
22,COc1cc(-c2c(C)c3cnn(-c4ncccn4)c(=O)n3c2C)ccn1 [1-139],100 to 1000 nM
23,Cc1c(-c2cccc3c2CCN3C)cc2cnn(-c3ccccn3)c(=O)n12 [1-64],< 100 nM
